Each block holds one compound with its values, some of them ahead of it. The source made the active and inactive calls. The calls are words filed in the database; no cut-off is given here.
Legend:
HeLa [1] = test: Antiproliferative activity against human HeLa cells assessed as inhibition of cell growth incubated for 48 hrs by XTT assay; format: functional, cell-based
MCF7 = test: Antiproliferative activity against human MCF7 cells assessed as inhibition of cell growth incubated for 48 hrs by XTT assay; format: functional, cell-based; conditions: MCF7, 48 h
PC-3 [2] = test: Antiproliferative activity against human PC-3 cells assessed as inhibition of cell growth incubated for 48 hrs by XTT assay; format: functional, cell-based; conditions: PC-3, 48 h
PC-3 [3] = test: Induction of cell cycle arrest in human PC-3 cells assessed as accumulation of cells at S phase at 1 uM incubated for 12 hrs by FACS flow cytometry analysis (reference value: 35.06 +/- 1.36 %); format: functional
HeLa [4] = test: Induction of apoptosis in human HeLa cells assessed as late apoptotic cells at 1 uM incubated for 24 hrs by Annexin V-FITC/7-AAD staining based flow cytometric analysis (reference value: 11.1 +/- 0.778 %); format: functional
PC-3 [5] = test: Induction of cell cycle arrest in human PC-3 cells assessed as accumulation of cells at G1 phase at 1 uM incubated for 6 hrs by FACS flow cytometry analysis (reference value: 44.2 +/- 2.21 %); format: functional
HeLa [6] = test: Induction of cell cycle arrest in human HeLa cells assessed as accumulation of cells at G2/M phase at 1 uM incubated for 6 hrs by FACS flow cytometry analysis (reference value: 12.66 +/- 0.88 %); format: functional
HeLa [7] = test: Induction of cell cycle arrest in human HeLa cells assessed as accumulation of cells at G2/M phase at 1 uM incubated for 18 hrs by FACS flow cytometry analysis (reference value: 12.66 +/- 0.92 %); format: functional
HeLa [8] = test: Induction of apoptosis in human HeLa cells assessed as dead cells at 1 uM incubated for 24 hrs by Annexin V-FITC/7-AAD staining based flow cytometric analysis (reference value: 0.6 +/- 0.707 %); format: functional
PC-3 [9] = test: Inhibition of colony formation in human PC-3 cells at IC50 incubated for 2 weeks with culture medium replacement for every 3 days by crystal violet staining based analysis; format: functional, cell-based
HFF-1 = test: Cytotoxicity against HFF-1 cells assessed as reduction in cell viability at 1 to 2 uM incubated for 48 hrs by XTT assay; format: toxicity, cell-based; conditions: human, hff-1, 48 h, dose 1-2 µM
Tubulin (Homo sapiens) [10] = target: T1, Tubulin (Homo sapiens) (UniProt P68371+Q9H4B7+P0DPH7+P68366+Q13509+Q71U36+P04350+Q3ZCM7+P07437+P68363+Q9BQE3+Q6PEY2+Q13885+Q9BVA1+Q9BUF5); test: Inhibition of tubulin polymerization in human HeLa cells assessed as aberrations in mitotic spindle and nucleus at 0.5 uM incubated for 6 hrs by DAPI staining based fluorescence microscopic analysis; format: cell-based
HeLa [11] = test: Induction of apoptosis in human HeLa cells assessed as viable cells at 1 uM incubated for 24 hrs by Annexin V-FITC/7-AAD staining based flow cytometric analysis (reference value: 85.6 +/- 1.061%); format: functional; conditions: read-out: Activity
HeLa [12] = test: Induction of cell cycle arrest in human HeLa cells assessed as accumulation of cells at G1 phase at 1 uM incubated for 6 hrs by FACS flow cytometry analysis (reference value: 69.94 +/- 1.71 %); format: functional
PC-3 [13] = test: Induction of cell cycle arrest in human PC-3 cells assessed as accumulation of cells at G1 phase at 1 uM incubated for 12 hrs by FACS flow cytometry analysis (reference value: 44.2 +/- 2.01 %); format: functional
NB1 = test: Cytotoxicity against human NB1 cells immortalized with hTERT plasmid assessed as reduction in cell viability at 1 to 2 uM incubated for 48 hrs by XTT assay; format: toxicity, cell-based; conditions: nb1, 48 h, dose 1-2 µM
PC-3 [14] = test: Induction of cell cycle arrest in human PC-3 cells assessed as accumulation of cells at G2/M phase at 1 uM incubated for 12 hrs by FACS flow cytometry analysis (reference value: 20.74 +/- 1.95 %); format: functional
HeLa [15] = test: Induction of apoptosis in human HeLa cells assessed as early apoptotic cells at 1 uM incubated for 24 hrs by Annexin V-FITC/7-AAD staining based flow cytometric analysis (reference value: 2.7 +/- 0.424 %); format: functional
HeLa [16] = test: Induction of cell cycle arrest in human HeLa cells assessed as accumulation of cells at G1 phase at 1 uM incubated for 18 hrs by FACS flow cytometry analysis (reference value: 69.94 +/- 1.25 %); format: functional
Tubulin (Homo sapiens) [17] = target: T1, Tubulin (Homo sapiens); test: Inhibition of tubulin polymerization in human HeLa cells assessed as abnormal microtubule network at 0.5 uM incubated for 6 hrs by DAPI staining based fluorescence microscopic analysis; format: cell-based
HeLa [18] = test: Inhibition of colony formation in human HeLa cells at IC50 incubated for 2 weeks with culture medium replacement for every 3 days by crystal violet staining based analysis; format: functional, cell-based
HeLa [19] = test: Induction of cell cycle arrest in human HeLa cells assessed as accumulation of cells at S phase at 1 uM incubated for 18 hrs by FACS flow cytometry analysis (reference value: 17.41 +/- 1.16 %); format: functional
PC-3 [20] = test: Induction of cell cycle arrest in human PC-3 cells assessed as accumulation of cells at S phase at 1 uM incubated for 6 hrs by FACS flow cytometry analysis (reference value: 35.06 +/- 1.85 %); format: functional
PC-3 [21] = test: Induction of cell cycle arrest in human PC-3 cells assessed as accumulation of cells at G2/M phase at 1 uM incubated for 6 hrs by FACS flow cytometry analysis (reference value: 20.74 +/- 1.93 %); format: functional
HeLa [22] = test: Induction of cell cycle arrest in human HeLa cells assessed as accumulation of cells at S phase at 1 uM incubated for 6 hrs by FACS flow cytometry analysis (reference value: 17.41 +/- 0.96 %); format: functional
Tubulin (Homo sapiens) [23] = target: T1, Tubulin (Homo sapiens); test: Inhibition of tubulin polymerization in human HeLa cells assessed as irregular cell morphology at 0.5 uM incubated for 6 hrs by DAPI staining based fluorescence microscopic analysis

- IC50 (HeLa [1]): > 10 µM
- IC50 (MCF7): > 10 µM
- IC50 (PC-3 [2]): > 10 µM
SMILES: COc1ccc(-c2nnc(-c3c(C)[nH]c4c3Cc3ccccc3-4)[se]2)cc1

- IC50 (HeLa [1]): > 10 µM
- IC50 (MCF7): > 10 µM
- IC50 (PC-3 [2]): > 10 µM
SMILES: COc1ccc(-c2nnc(-c3c(C)[nH]c4c3Cc3ccccc3-4)s2)cc1

SMILES: Cc1[nH]c2c(c1-c1nnc(-c3cccc(Cl)c3)[se]1)Cc1ccccc1-2
- Activity (PC-3 [3]): 8.65%
- Activity (HeLa [4]): 15.4%
- Activity (PC-3 [5]): 10.43%
- Activity (HeLa [6]): 23.63%
- Activity (HeLa [7]): 89.4%
- Activity (HeLa [8]): 1.8%
- inhibition (PC-3 [9]): Active
- Activity (HFF-1): Non-Toxic
- inhibition (Tubulin (Homo sapiens) [10]): Active
- viability at 1 µM (HeLa [11]): 80.1%
- Activity (HeLa [12]): 27.87%
- Activity (PC-3 [13]): 1.87%
- Activity (NB1): Non-Toxic
- Activity (PC-3 [14]): 89.48%
- Activity (HeLa [15]): 2.7%
- IC50 (HeLa [1]): 0.083 µM
- Activity (HeLa [16]): 1.15%
- IC50 (MCF7): 0.216 µM
- inhibition (Tubulin (Homo sapiens) [17]): Active
- inhibition (HeLa [18]): Active
- Activity (HeLa [19]): 9.44%
- Activity (PC-3 [20]): 54.7%
- Activity (PC-3 [21]): 34.87%
- Activity (HeLa [22]): 48.5%
- IC50 (PC-3 [2]): 0.548 µM
- inhibition (Tubulin (Homo sapiens) [23]): Active

- IC50 (HeLa [1]): > 10 µM
- IC50 (MCF7): > 10 µM
- IC50 (PC-3 [2]): > 10 µM
SMILES: Cc1[nH]c2c(c1-c1nnc(-c3ccc(C(C)(C)C)cc3)s1)Cc1ccccc1-2

- IC50 (HeLa [1]): > 10 µM
- IC50 (MCF7): > 10 µM
- IC50 (PC-3 [2]): > 10 µM
SMILES: Cc1[nH]c2c(c1-c1nnc(-c3ccc(C(C)(C)C)cc3)[se]1)Cc1ccccc1-2

- IC50 (HeLa [1]): > 10 µM
- IC50 (MCF7): > 10 µM
- IC50 (PC-3 [2]): > 10 µM
SMILES: COc1cc(-c2nnc(-c3c(C)[nH]c4c3Cc3ccccc3-4)[se]2)cc(OC)c1OC

SMILES: Cc1[nH]c2c(c1-c1nnc(-c3ccccc3Cl)[se]1)Cc1ccccc1-2
- Activity (PC-3 [3]): 5.7%
- Activity (HeLa [4]): 58.2%
- Activity (PC-3 [5]): 13.15%
- Activity (HeLa [6]): 23.09%
- Activity (HeLa [7]): 85.47%
- Activity (HeLa [8]): 5.3%
- inhibition (PC-3 [9]): Active
- Activity (HFF-1): Non-Toxic
- inhibition (Tubulin (Homo sapiens) [10]): Active
- viability at 1 µM (HeLa [11]): 24.6%
- Activity (HeLa [12]): 41.62%
- Activity (PC-3 [13]): 0.64%
- Activity (NB1): Non-Toxic
- Activity (PC-3 [14]): 93.66%
- Activity (HeLa [15]): 11.9%
- IC50 (HeLa [1]): 0.005 µM
- Activity (HeLa [16]): 2.03%
- IC50 (MCF7): 0.091 µM
- inhibition (Tubulin (Homo sapiens) [17]): Active
- inhibition (HeLa [18]): Active
- Activity (HeLa [19]): 12.5%
- Activity (PC-3 [20]): 55.33%
- Activity (PC-3 [21]): 31.52%
- Activity (HeLa [22]): 35.29%
- IC50 (PC-3 [2]): 0.067 µM
- inhibition (Tubulin (Homo sapiens) [23]): Active

SMILES: Cc1[nH]c2c(c1-c1nnc(-c3ccc(Cl)cc3)[se]1)Cc1ccccc1-2
- IC50 (HeLa [1]): > 10 µM
- IC50 (MCF7): > 10 µM
- IC50 (PC-3 [2]): > 10 µM

From ChEMBL document CHEMBL5113401, “Novel 1,3,4-oxadiazole chalcogen analogues: Synthesis and cytotoxic activity” (Eur J Med Chem, 2022)
